Reference: the NIST ThermoML archive (doi:10.1016/j.jct.2004.06.009)

Experiment: molar heat capacity at constant pressure
Conditions: 101.33 kPa, Crystal

CCC12CC3CC(CC(C3)C1)C2 [1-ethyladamantane]
Conditions	molar heat capacity at constant pressure [J/K/mol]
8.03 K	1.395
8.87 K	1.961
9.72 K	2.621
10.57 K	3.39
11.44 K	4.278
12.32 K	5.225
13.21 K	6.255
14.1 K	7.376
14.99 K	8.556
15.9 K	9.727
16.8 K	10.96
17.71 K	12.22
18.62 K	13.48
19.54 K	14.72
20.54 K	16.13
21.56 K	17.52
22.59 K	18.89
23.61 K	20.32
24.63 K	21.67
26.68 K	24.2
27.71 K	25.4
28.74 K	26.62
29.76 K	27.84
30.79 K	29.12
32.85 K	31.29
33.87 K	32.44
34.9 K	33.5
35.93 K	34.39
37.98 K	36.32
39.01 K	37.21
40.03 K	38.15
41.06 K	39
42.08 K	39.94
43.1 K	40.64
44.12 K	41.41
45.14 K	42.16
46.16 K	42.91
47.18 K	43.59
48.2 K	44.12
49.22 K	44.8
50.23 K	45.53
51.25 K	46
52.26 K	46.77
53.27 K	47.66
54.29 K	48.36
55.3 K	49.16
56.32 K	50.02
57.33 K	50.66
60.8 K	53.31
62.77 K	54.44
64.71 K	55.94
65.75 K	56.4
66.79 K	57.48
67.84 K	57.62
68.88 K	58.33
69.92 K	59.01
70.96 K	59.56
72 K	60.08
73.04 K	60.85
74.08 K	61.29
75.11 K	62.33
76.15 K	62.98
77.19 K	63.42
78.22 K	64.33
79.25 K	64.56
80.28 K	65.4
81.31 K	66.12
81.85 K	65.93
82.34 K	66.67
82.88 K	66.84
83.37 K	67.23
83.91 K	67.62
84.26 K	67.63
84.94 K	68.15
85.59 K	68.6
85.97 K	68.8
86.66 K	69.39
87 K	69.66
87.74 K	70.12
88.82 K	70.92
89.89 K	71.56
90.96 K	72.22
92.04 K	72.9
93.11 K	73.4
94.18 K	73.82
95.25 K	75.04
96.32 K	75.51
97.39 K	76.24
98.46 K	76.81
99.54 K	77.83
100.87 K	78.38
102.46 K	79.35
104.05 K	80.35
105.64 K	81.43
107.23 K	82.56
108.82 K	83.52
110.4 K	84.71
111.99 K	85.66
113.57 K	86.76
115.16 K	87.63
116.73 K	88.67
118.31 K	89.74
119.89 K	90.68
121.47 K	91.9
123.04 K	92.76
124.62 K	93.94
126.2 K	94.87
127.77 K	96.09
129.34 K	97.09
130.92 K	97.98
132.49 K	99.07
134.06 K	100.25
135.63 K	101.16
137.2 K	102.25
138.77 K	103.19
140.34 K	104.1
141.9 K	105.44
143.46 K	106.52
145.03 K	107.47
146.59 K	108.5
148.16 K	109.54
149.72 K	110.66
151.28 K	111.92
152.83 K	112.8
154.39 K	113.97
155.94 K	114.98
157.5 K	116.23
159.05 K	117.17
160.6 K	118.16
162.16 K	119.21
163.71 K	120.38
165.26 K	121.36
166.82 K	122.47
168.37 K	123.67
169.92 K	124.78
171.47 K	125.84
173.02 K	126.95
174.57 K	128.01
